Measurements as given in EPA's ToxValDB 9.5 (doi:10.2903/j.efsa.2015.4100).
Values after ≈ are worked out from the molar mass of the structure shown.

How the values were obtained:
Neomysis kadiakensis = settings: mortality
Bibionidae = settings: chronic/long-term; duration: 28 days; reproduction
Canidae = settings: chronic; duration: 52 weeks; oral; Dog Other; organ weight
Apis mellifera = settings: acute, mortality
Pimephales promelas = settings: chronic/long-term; duration: 32 days; reproduction
Oncorhynchus mykiss = settings: acute; duration: 96 hours; mortality
Daphnia magna = settings: chronic/long-term; duration: 21 days; reproduction
Typhlodromus pyri = test: LR50; higher = less toxic; settings: not reported; mortality
Aphidius rhopalosiphi = test: LR50; higher = less toxic; settings: not reported; mortality

Compound: CNC(=O)C(OC)c1ccccc1COc1cc(C)ccc1C (centres undefined) [Mandestrobin]
- LC50 (Neomysis kadiakensis; acute, duration: 96 hours): 0.43 µg/mL (≈ 1.37 µM)
- NOEC (Neomysis kadiakensis; chronic/long-term, duration: 36 days): 0.0036 mg/L
- NOEC (Bibionidae): 8.1 mg/L
- LC50 (Tagia sp.; acute, duration: 14 days, mortality): 84 mg/kg
- NOEC (Tagia sp.; chronic/long-term, duration: 56 days): 3.75 mg/kg
- NOAEL (Canidae): 19 mg/kg-day
- LD50 (Apis mellifera; dermal): > 100 µg/piece
- LD50 (Apis mellifera; oral, unspecified): > 111 µg/piece
- LD50 (Rattus norvegicus; acute, oral, mortality): > 200 mg/kg-day
- NOAEL (Rattus norvegicus; reproduction developmental): 163 mg/kg-day
- LOAEL (Rattus norvegicus; reproduction developmental, organ weight): 60.2 mg/kg-day
- NOEC (Pimephales promelas): 0.15 mg/L
- LC50 (Colinus virginianus; acute, duration: 8 days, oral, diet, mortality): > 1340 mg/kg-day
- LD50 (Colinus virginianus; acute, oral, mortality): > 2250 mg/kg-day
- NOEC (Colinus virginianus; reproduction developmental, duration: 21 weeks, reproduction): 91.1 mg/kg-day
- LC50 (Oncorhynchus mykiss): 0.84 µg/mL (≈ 2.68 µM)
- NOEC (Daphnia magna): 0.56 mg/L
- LR50 (Typhlodromus pyri): > 1000 g/ha
- LR50 (Aphidius rhopalosiphi): > 1000 g/ha
